Experimental data reported in patent US10004732B2 (Novartis AG, priority 2014, dated 2018).

Assays:
[1] = Microsomal clearance assay (M); details: intrinsic clearance in rat liver microsomes
Experimental: The experiments were performed in 96-well glass plates at 37° C. on an automated Tecan EVO platform. Test compounds at a concentration of 10 mM in pure DMSO were diluted 1:1000 in water to 10 μM. […] Reactions were initiated by the addition of 150 μL of a cofactor solution containing 2 mM NADPH.

[2] = target: T1, PI 3-kinase delta (Homo sapiens, UniProt O00329); assay: TR-FRET Adapta assay, assay F; details: read-out: Assay F PI3Kδ IC50
Target sequence in this assay (O00329 whole entry): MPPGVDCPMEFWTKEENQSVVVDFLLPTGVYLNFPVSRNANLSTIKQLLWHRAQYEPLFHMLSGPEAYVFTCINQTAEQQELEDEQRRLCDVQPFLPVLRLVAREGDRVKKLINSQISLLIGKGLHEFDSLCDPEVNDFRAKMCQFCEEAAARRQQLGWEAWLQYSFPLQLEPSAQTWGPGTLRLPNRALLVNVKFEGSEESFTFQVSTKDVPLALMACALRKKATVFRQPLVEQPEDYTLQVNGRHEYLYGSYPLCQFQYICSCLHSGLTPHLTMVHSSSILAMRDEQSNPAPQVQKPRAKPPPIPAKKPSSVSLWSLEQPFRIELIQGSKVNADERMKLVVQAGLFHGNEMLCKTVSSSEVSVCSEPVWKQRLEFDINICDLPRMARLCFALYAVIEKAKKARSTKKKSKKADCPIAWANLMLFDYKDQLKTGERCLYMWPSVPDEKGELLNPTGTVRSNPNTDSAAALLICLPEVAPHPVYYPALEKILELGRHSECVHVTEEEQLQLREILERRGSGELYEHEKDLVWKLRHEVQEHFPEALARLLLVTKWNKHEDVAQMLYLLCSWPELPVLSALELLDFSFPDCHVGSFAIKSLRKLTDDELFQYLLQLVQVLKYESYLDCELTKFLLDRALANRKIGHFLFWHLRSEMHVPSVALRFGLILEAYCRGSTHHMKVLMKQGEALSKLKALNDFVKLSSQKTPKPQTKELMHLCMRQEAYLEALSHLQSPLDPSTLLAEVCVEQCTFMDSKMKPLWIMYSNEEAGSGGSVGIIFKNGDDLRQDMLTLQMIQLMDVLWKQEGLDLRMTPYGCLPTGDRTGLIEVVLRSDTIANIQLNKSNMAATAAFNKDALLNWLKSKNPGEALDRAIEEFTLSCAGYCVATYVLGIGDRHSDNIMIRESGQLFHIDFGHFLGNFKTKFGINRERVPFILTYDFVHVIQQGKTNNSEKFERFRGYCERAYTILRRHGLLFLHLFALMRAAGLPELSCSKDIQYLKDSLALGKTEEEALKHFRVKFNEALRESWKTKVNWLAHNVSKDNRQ
Target sequence in this assay (P27986 461-568 partner): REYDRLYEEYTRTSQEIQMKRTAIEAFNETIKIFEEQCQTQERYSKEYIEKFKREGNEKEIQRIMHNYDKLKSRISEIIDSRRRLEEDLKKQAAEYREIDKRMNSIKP
Experimental: TR-FRET Adapta Assay for PI 3-Kinase Gamma (E), PI 3-Kinase Delta (F)
The TR-FRET Adapta™ Universal Kinase Assay Kit was purchased from Invitrogen Corporation (Carlsbad/CA, USA) (Cat. No. PV5099).
PIK3CD substrate phosphatidylinositol (PI) was obtained from Invitrogen (vesicules consisting of 2 mM phosphatidylinositol (PI) in 50 mM HEPES pH7.5; Cat. No. PV5371). PIK3CG substrate phosphatidylinositol-4,5-bisphosphate (PIP(4,5)2 was obtained from Invitrogen (PIP2:PS large unilamellar vesicules consisting of 1 mM PIP2: 19 mM PS in 50 mM HEPES pH7.5, 3 mM MgCl2, 1 mM EGTA; Cat. No. PV5100).
Time-Resolved Fluorescence Resonance Energy Transfer (TR-FRET) is a technology based on energy transfer between two adjacent dyes, from an excited electron in one dye (the donor) to an electron of an adjacent dye (the acceptor) through resonance, then released as a photon. This energy transfer is detected by an increase in the fluorescence emission of the acceptor, and a decrease in the fluorescence emission of the donor. TR-FRET assays for protein kinases use a long-lifetime lanthanide Terbium or Europium chelates as the donor species which overcome interference from compound autofluorescence or light scatter from precipitated compounds, by introducing a delay after excitation by a flashlamp excitation source. Results are often expressed as a ratio of the intensities of the acceptor and donor fluorophores. The ratiometric nature of such a value corrects for differences in assay volumes between wells, as well as corrects for quenching effects due to colored compounds. The Adapta™ assay can be divided into two phases: a kinase reaction phase and an ADP detection phase. In the kinase reaction phase, all kinase reaction components are added to the well and the reaction is allowed to incubate for a set period of time specific for each kinase. […] In the presence of an inhibitor, the amount of ADP formed by the kinase reaction is reduced, and the resulting intact antibody-tracer interaction maintains a high TR-FRET signal.
50 nL of compound dilutions were dispensed onto white 384-well small volume polystyrene plate. Then 5 μL of either PI 3-kinase gamma or PI 3-kinase delta and lipid substrate (PI or PIP2:PS) followed by 5 μL of ATP (final assay volume 10 μL) are incubated at RT. The standard reaction buffer for the Adapta™ TR-FRET assay contained 10 mM Tris-HCl pH 7.5, 3 mM MgCl2, 50 mM NaCl, 1 mM DTT, 0.05% CHAPS 3-[(3-cholamidopropyl)dimethylammonio]-1-propanesulfonate).
Data are analyzed using Excel fit software or Graphpad Prism. IC50 values were derived by fitting a sigmoidal dose-response curve to a plot of assay readout over inhibitor concentration. All fits were performed with the program XLfit4 (ID Business Solutions, Guildford, UK). […] All fits were performed with the program XLfit4 (ID Business Solutions, Guildford, UK).

[3] = target: mTOR (Homo sapiens, UniProt P42345); assay: Lanthascreen kinase binding assay, assay G; details: read-out: Assay G mTOR IC50
Experimental: Lanthascreen™ Kinase Binding Assay for mTOR (G)
Binding of an inhibitor to the kinase competes for binding with the tracer, resulting in a loss of FRET.
50 nL of compound dilutions were dispensed onto white 384-well small volume polystyrene plate.

[4] = target: T2, PI 3-kinase beta (Homo sapiens, UniProt P42338); assay: Kinase Glo Luminescent Kinase Assay (Kglo), assay B; format: biochemical; details: read-out: Assay B PI3Kβ IC50
[5] = target: T1, PI 3-kinase delta; assay: Cellular assay J1, p-Akt (S473) in Rat-1 cells, Surefire format; format: cell-based; details: non-asterisked data: version J1 (Surefire format), Rat-1 cells; read-out: Assay J PI3Kδ IC50
Target sequence in this assay (O00329 whole entry): as the sequence (O00329 whole entry) above
Target sequence in this assay (Q63787 whole entry partner): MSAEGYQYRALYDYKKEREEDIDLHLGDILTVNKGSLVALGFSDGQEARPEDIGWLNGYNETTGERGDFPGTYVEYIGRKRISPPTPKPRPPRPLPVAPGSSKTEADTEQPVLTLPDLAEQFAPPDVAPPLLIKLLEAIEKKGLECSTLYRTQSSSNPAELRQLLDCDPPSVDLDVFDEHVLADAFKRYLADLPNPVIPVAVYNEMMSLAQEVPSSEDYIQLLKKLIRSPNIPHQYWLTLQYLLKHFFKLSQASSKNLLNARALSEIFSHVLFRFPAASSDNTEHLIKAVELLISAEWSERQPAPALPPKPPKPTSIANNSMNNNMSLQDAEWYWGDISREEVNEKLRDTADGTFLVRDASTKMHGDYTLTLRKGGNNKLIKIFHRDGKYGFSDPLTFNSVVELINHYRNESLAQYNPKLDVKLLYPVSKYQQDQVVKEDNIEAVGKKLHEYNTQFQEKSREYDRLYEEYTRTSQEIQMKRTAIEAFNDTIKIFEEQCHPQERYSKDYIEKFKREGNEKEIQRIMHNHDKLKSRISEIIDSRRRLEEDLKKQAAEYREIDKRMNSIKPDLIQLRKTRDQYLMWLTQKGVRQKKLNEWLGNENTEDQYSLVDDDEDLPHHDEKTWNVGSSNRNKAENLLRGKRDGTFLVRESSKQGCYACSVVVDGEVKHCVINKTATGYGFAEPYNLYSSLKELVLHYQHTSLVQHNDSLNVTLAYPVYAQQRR

[6] = target: T3, PI 3-kinase alpha (Homo sapiens, UniProt P42336); assay: Kinase Glo Luminescent Kinase Assay (Kglo), assay A; format: biochemical; details: read-out: Assay A PI3Kα IC50
Target sequence in this assay (P42336 whole entry): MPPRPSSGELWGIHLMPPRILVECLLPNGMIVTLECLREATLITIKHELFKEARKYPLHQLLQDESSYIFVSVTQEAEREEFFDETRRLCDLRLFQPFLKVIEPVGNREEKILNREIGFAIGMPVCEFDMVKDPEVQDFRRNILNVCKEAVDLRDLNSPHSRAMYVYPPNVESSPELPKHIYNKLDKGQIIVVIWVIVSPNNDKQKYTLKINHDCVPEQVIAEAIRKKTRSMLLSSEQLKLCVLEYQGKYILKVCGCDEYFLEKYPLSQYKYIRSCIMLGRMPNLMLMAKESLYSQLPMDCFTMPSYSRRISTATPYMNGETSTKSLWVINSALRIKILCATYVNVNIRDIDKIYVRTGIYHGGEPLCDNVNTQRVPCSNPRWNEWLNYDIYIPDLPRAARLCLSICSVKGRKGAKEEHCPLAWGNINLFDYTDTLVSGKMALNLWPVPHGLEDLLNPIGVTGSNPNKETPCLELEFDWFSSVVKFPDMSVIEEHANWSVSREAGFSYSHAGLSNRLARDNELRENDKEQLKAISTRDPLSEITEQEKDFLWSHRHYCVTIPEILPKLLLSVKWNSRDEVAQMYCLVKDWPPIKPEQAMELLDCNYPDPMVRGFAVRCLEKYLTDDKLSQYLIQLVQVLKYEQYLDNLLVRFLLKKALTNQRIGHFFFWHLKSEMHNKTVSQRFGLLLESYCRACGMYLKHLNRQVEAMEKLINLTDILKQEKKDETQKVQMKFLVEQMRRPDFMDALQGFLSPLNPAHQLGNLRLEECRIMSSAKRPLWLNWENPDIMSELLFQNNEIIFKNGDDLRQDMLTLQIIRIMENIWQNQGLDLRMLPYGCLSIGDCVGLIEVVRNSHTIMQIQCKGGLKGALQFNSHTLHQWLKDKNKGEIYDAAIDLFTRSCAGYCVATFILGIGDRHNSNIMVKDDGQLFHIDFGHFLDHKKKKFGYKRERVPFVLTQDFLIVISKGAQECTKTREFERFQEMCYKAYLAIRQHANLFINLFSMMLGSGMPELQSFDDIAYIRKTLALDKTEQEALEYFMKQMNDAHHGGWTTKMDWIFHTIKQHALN

[7] = target: T2, PI 3-kinase beta; assay: Cellular assay I1, p-Akt (S473) in Rat-1 cells, Surefire format; format: cell-based; details: non-asterisked data: version I1 (Surefire format), Rat-1 cells; read-out: Assay I PI3Kβ IC50
Text: Cellular Assays for PI 3-Kinase Alpha (H1), Beta (I1) and Delta (J1): Surefire Format
AlphaScreen (Amplified Luminescent Proximity Homogeneous Assay, ALPHA, Perkin Elmer) is a non-radioactive bead-based proximity assay technology to study biomolecular interactions in a homogenous microtiter plate format. The brand name SureFire denotes AlphaScreen assays that are adapted to quantify the phosphorylation of endogenous cellular proteins in cell lysates, by using matched antibody pairs, which consist of an anti-phospho-kinase and an anti-kinase antibody. The assay allows characterization of kinase signaling in cells as well as measurement of kinase inhibitor effects.
Using Rat-1 cells stably expressing myr-HA-tagged versions of the human PI3Kdelta, PI3Kalpha, or PI3Kbeta p110 catalytic subunit isoforms, the assay was developed as a two-plate protocol in a 384-well format.
For compound testing, the cells were seeded at a density of 4000 (Rat-1_PI3Kdelta), 7500 (Rat-1_PI3Kalpha), or 6200 (Rat-1_PI3Kbeta) cells in 20 μl complete growth medium into cell culture treated 384-well plates and were grown at 37° C./5% CO2/90% humidity for 24 h. Shortly before compound transfer, the complete medium was removed, 30 μl assay buffer (DMEM high glucose, 1×MEM NEAA, 10 mM HEPES, 2 mM L-glutamine, 0.1% (w/v) BSA) was added and 10 μl of the compound predilutions were transferred to the cells.

[8] = target: T3, PI 3-kinase alpha; assay: Cellular assay H1, p-Akt (S473) in Rat-1 cells, Surefire format; format: cell-based; details: non-asterisked data: version H1 (Surefire format), Rat-1 cells; read-out: Assay H PI3Kα IC50
Target sequence in this assay (P42336 whole entry): as above
Target sequence in this assay (Q63787 whole entry partner): as the sequence (Q63787 whole entry partner) above

[9] = target: PI 4-kinase beta (Homo sapiens, UniProt Q9UBF8); assay: Kinase Glo Luminescent Kinase Assay (Kglo), assay D; format: biochemical; details: read-out: Assay D PI4Kβ IC50
[10] = target: Vps34 (Homo sapiens, UniProt Q8NEB9); assay: Kinase Glo Luminescent Kinase Assay (Kglo), assay C; format: biochemical; details: read-out: Assay C VPS34 IC50
[11] = target: PI 3-kinase gamma (Homo sapiens, UniProt P48736); assay: TR-FRET Adapta assay, assay E; format: biochemical; details: read-out: Assay E PI3Kγ IC50

PI 4-kinase beta, sequence (Q9UBF8 whole entry): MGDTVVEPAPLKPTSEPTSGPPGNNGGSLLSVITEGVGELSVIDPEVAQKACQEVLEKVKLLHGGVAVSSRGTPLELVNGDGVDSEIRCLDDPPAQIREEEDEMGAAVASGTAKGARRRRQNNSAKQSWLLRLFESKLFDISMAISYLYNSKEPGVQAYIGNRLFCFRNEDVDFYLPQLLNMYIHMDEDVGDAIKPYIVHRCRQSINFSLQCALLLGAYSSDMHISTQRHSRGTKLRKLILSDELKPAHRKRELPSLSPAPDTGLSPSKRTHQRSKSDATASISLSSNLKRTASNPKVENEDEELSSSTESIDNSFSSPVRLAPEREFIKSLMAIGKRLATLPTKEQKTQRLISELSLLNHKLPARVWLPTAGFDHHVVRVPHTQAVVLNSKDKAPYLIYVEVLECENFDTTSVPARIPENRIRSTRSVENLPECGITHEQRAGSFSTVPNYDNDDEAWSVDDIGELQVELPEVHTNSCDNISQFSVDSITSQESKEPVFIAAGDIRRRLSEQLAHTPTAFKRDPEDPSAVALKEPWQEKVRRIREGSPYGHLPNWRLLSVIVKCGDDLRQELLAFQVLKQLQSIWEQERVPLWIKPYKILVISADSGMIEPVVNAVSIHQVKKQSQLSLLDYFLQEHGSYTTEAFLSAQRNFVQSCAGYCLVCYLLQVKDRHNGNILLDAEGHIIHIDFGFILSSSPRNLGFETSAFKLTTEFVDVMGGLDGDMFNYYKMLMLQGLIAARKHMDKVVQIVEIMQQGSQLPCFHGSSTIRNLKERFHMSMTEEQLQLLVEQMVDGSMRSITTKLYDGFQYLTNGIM
Vps34, sequence (Q8NEB9 whole entry, species assumed): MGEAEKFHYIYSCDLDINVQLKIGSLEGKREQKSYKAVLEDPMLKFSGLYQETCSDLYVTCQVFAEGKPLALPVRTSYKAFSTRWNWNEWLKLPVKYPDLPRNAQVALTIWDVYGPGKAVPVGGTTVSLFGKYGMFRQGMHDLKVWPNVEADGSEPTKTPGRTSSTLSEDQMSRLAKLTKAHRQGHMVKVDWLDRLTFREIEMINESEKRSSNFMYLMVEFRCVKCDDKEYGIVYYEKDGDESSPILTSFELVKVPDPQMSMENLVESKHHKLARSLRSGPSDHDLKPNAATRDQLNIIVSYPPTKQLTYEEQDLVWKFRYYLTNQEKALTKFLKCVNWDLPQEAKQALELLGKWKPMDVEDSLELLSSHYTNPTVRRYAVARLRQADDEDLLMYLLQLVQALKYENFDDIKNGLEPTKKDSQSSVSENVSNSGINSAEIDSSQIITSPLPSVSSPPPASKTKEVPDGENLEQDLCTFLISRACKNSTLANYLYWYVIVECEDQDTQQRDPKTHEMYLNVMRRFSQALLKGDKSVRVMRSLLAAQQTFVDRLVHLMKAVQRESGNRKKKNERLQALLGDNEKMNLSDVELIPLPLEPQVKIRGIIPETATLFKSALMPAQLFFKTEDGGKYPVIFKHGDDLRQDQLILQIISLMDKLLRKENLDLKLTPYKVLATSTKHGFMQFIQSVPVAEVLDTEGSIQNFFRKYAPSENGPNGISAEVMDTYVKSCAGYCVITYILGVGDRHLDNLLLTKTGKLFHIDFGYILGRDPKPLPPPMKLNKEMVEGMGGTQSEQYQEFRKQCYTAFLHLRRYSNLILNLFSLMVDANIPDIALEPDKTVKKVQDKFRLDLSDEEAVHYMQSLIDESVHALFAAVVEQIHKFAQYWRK

Assay M RLM CI(int) [1] [µL/min/mg]	IC50 [2] [nM]	IC50 [3] [nM]	IC50 [4] [nM]	IC50 [5] [nM]	IC50 [6] [nM]	IC50 [7] [nM]	IC50 [8] [nM]	IC50 [9] [nM]	IC50 [10] [nM]	IC50 [11] [nM]	Structure (SMILES)
123	260	1360	1100	860	360	> 3000	400	1200	> 10000		Cc1ccc(S(=O)(=O)NOC(C)C)cc1-c1cnc(N)c(-n2cncn2)n1 [Example 112.3, 3-(5-Amino-6-(1H-1,2,4-triazol-1-yl)pyrazin-2-yl)-N-isopropoxy-4-methylbenzenesulfonamide]
119	60	1390	2090	960	80	1290	790	940	3100	6	Cc1ccc(S(=O)(=O)NCCC(C)(C)O)cc1-c1cnc(N)c(-c2cnc(C3CC3)s2)n1 [Example 107, 3-(5-Amino-6-(2-cyclopropylthiazol-5-yl)pyrazin-2-yl)-N-(3-hydroxy-3-methylbutyl)-4-methylbenzenesulfonamide]
45	700	> 10000	5200	4050	1900	8750	> 10000	4300	> 10000	85	CCn1cc(-c2nc(-c3cc(S(=O)(=O)NCC(C)(C)O)ccc3C)cnc2N)nn1 [Example 83, 3-(5-Amino-6-(1-ethyl-1H-1,2,3-triazol-4-yl)pyrazin-2-yl)-N-(2-hydroxy-2-methylpropyl)-4-methylbenzenesulfonamide]
28	330	950	> 9100	8580	1740	> 10000	> 10000	> 9100	> 9100	58	CCc1noc(-c2nc(-c3cc(S(=O)(=O)NC4CNC4)ccc3C)cnc2N)n1 [Example 137, 3-(5-Amino-6-(3-ethyl-1,2,4-oxadiazol-5-yl)pyrazin-2-yl)-N-(azetidin-3-yl)-4-methylbenzenesulfonamide]
380	40	5870	3900	510	250	1800	700	1790	> 9100	37	Cc1ccc(S(=O)(=O)NCCC(C)(C)O)cc1-c1cnc(N)c(-c2cnn(CCC(C)C)c2)n1 [Example 119.26]
34	1000		6000	> 10000	1000	> 10000	> 10000	> 10000	> 10000	270	Cc1ccc(S(=O)(=O)NCC(C)(C)O)cc1-c1cnc(N)c(-c2cnn(CCN(C)C)c2)n1 [Example 142, 3-(5-Amino-6-(1-(2-(dimethylamino)ethyl)-1H-pyrazol-4-yl)pyrazin-2-yl)-N-(2-hydroxy-2-methylpropyl)-4-methylbenzenesulfonamide]
	720	4320	> 9100	5930	2980	4050	6970	7960	> 9100	278	Cc1cncc(-c2nc(-c3cc(S(=O)(=O)NCCC(C)(C)O)ccc3C)cnc2N)c1 [Example 119.7]
347	480	5700	4500	2960	210	5150	2960	> 9100	> 9100	59	Cc1cc(-c2nc(-c3cc(S(=O)(=O)NCC4CCCOC4)ccc3C)cnc2N)ccn1 (stereo not shown) [Example 129.14, 3-(5-amino-6-(2-methylpyridin-4-yl)pyrazin-2-yl)-4-methyl-N-((tetrahydro-2H-pyran-3-yl)methyl)benzenesulfonamide]
	1100	> 9100	> 9100	6940	450	3560	2540	> 9100	> 9100	303	Cc1ccc(S(=O)(=O)NCCC(C)(C)O)cc1-c1cnc(N)c(-c2ccncc2F)n1 [Example 119.11]
	530	2340	1930	> 10000	570	> 10000	4410	2190	> 9100	157	Cc1ccc(S(=O)(=O)NCCC(C)(C)O)cc1-c1cnc(N)c(-c2c[nH]nc2C)n1 [Example 119.22]
	960	> 9100	8810	1650	1660	7330	1480	4860	> 9100	162	Cc1ccc(S(=O)(=O)NCCC(C)(C)O)cc1-c1cnc(N)c(-c2ccoc2)n1 [Example 119.15]
	5700	> 9100	> 9100	> 10000	2830	> 10000	> 10000	> 9100	> 9100	3120	COc1ncccc1-c1nc(-c2cc(S(=O)(=O)NCCC(C)(C)O)ccc2C)cnc1N [Example 119.4]
	1670	9020	> 9100	3170	1090	9220	2600	3400	> 9100	761	Cc1ccc(S(=O)(=O)NCCC(C)(C)O)cc1-c1cnc(N)c(-c2ccc(OC3CCOCC3)nc2)n1 [Example 119.24]
	2180	> 9100	> 9100	7480	1730	> 10000	5160	3830	> 9100	401	Cc1ccc(S(=O)(=O)NCCC(C)(C)O)cc1-c1cnc(N)c(-c2ccc(N3CCOCC3)nc2)n1 [Example 119.21]
	200	5940	> 9100	5200	1050	4640	3850	4530	> 9100	167	Cc1ccc(S(=O)(=O)NCCC(C)(C)O)cc1-c1cnc(N)c(-c2cc(Cl)cnc2F)n1 [Example 119.8]
	900	> 9100	7780	4230	330	3070	1920	690	> 9100	178	Cc1ccc(S(=O)(=O)NCCC(C)(C)O)cc1-c1cnc(N)c(-c2cnc(Cl)cc2C)n1 [Example 119.9]
	350	> 9100	4330	> 10000	400	> 10000	> 10000	7170	> 9100	55	Cc1cc(-c2nc(-c3cc(S(=O)(=O)NC4CCNC(=O)C4)ccc3C)cnc2N)ccn1 (stereo not shown) [Example 134, 3-(5-Amino-6-(2-methylpyridin-4-yl)pyrazin-2-yl)-4-methyl-N-(2-oxopiperidin-4-yl)benzenesulfonamide]
	> 9100	> 9100	> 9100	> 10000	> 9100	> 10000	> 10000	> 9100	> 9100	3470	Cc1ccc(S(=O)(=O)NCCC(C)(C)O)cc1-c1cnc(N)c(-c2cnn(C)c2C)n1 [Example 119.19]
	580	> 9100	8040	1300	490	4480	1320	8190	> 9100	248	Cc1ccc(S(=O)(=O)NCCC(C)(C)O)cc1-c1cnc(N)c(-c2ccc(F)nc2)n1 [Example 119.18]
29	3700		7000	> 10000	1700	> 10000	> 10000	> 10000	> 10000	690	Cc1ncc(S(=O)(=O)NCC(C)(C)O)cc1-c1cnc(N)c(-n2cncn2)n1 [Example 53, 5-(5-Amino-6-(1H-1,2,4-triazol-1-yl)pyrazin-2-yl)-N-(2-hydroxy-2-methylpropyl)-6-methylpyridine-3-sulfonamide]
